Tests used:
[1] = target: Mitogen-activated protein kinase 14 (Homo sapiens) (UniProt Q16539); assay: MAPK14P38A Invitrogen selectivity data (BI); details: Compound concentration 3.0 uM
[2] = target: Catechol O-methyltransferase (Sus scrofa) (UniProt Q99028); assay: CATOMETHTRAN Cerep selectivity data (BI); details: Compound concentration 20.0 uM
[3] = target: Serine/threonine-protein kinase pim-2 (Homo sapiens) (UniProt Q9P1W9); assay: PIM2 Invitrogen selectivity data (BI); details: Compound concentration 3.0 uM
[4] = target: SRSF protein kinase 1 (Homo sapiens) (UniProt Q96SB4); assay: SRPK1 Invitrogen selectivity data (BI); details: Compound concentration 3.0 uM
[5] = target: T1, Inhibitor of nuclear factor kappa-B kinase subunit beta (Homo sapiens) (UniProt O14920); assay: IKBKB Invitrogen selectivity data (BI); details: Compound concentration 3.0 uM
T1 sequence (whole entry): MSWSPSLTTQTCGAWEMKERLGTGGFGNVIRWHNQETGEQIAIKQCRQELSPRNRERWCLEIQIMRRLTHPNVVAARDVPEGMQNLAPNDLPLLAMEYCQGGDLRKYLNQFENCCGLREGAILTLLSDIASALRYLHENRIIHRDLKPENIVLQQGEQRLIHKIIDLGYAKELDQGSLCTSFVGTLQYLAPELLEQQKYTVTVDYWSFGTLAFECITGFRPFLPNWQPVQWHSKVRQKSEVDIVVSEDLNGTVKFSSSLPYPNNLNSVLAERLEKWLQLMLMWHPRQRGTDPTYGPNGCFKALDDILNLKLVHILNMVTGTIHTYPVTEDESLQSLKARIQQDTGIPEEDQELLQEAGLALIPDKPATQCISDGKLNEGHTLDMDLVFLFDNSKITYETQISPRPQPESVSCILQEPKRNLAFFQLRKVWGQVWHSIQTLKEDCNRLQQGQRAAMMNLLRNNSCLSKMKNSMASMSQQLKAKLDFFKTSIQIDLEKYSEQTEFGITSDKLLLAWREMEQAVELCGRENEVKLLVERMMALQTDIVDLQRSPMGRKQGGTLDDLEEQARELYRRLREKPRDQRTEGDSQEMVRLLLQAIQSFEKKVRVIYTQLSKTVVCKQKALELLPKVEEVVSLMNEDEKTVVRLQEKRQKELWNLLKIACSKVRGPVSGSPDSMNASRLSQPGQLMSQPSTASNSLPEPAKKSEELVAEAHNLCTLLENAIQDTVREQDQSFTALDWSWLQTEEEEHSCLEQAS

[6] = target: Myosin light chain kinase 2, skeletal/cardiac muscle (Homo sapiens) (UniProt Q9H1R3); assay: MYLK2 Invitrogen selectivity data (BI); details: Compound concentration 3.0 uM
[7] = target: Estrogen receptor (Homo sapiens) (UniProt P03372); assay: ERALPHA/H Eurofins-Panlabs selectivity data (BI); details: Compound concentration 10.0 uM
[8] = target: T2, Ephrin type-B receptor 4 (Homo sapiens) (UniProt P54760); assay: EPHB4 Invitrogen selectivity data (BI); details: Compound concentration 3.0 uM
T2 sequence (whole entry): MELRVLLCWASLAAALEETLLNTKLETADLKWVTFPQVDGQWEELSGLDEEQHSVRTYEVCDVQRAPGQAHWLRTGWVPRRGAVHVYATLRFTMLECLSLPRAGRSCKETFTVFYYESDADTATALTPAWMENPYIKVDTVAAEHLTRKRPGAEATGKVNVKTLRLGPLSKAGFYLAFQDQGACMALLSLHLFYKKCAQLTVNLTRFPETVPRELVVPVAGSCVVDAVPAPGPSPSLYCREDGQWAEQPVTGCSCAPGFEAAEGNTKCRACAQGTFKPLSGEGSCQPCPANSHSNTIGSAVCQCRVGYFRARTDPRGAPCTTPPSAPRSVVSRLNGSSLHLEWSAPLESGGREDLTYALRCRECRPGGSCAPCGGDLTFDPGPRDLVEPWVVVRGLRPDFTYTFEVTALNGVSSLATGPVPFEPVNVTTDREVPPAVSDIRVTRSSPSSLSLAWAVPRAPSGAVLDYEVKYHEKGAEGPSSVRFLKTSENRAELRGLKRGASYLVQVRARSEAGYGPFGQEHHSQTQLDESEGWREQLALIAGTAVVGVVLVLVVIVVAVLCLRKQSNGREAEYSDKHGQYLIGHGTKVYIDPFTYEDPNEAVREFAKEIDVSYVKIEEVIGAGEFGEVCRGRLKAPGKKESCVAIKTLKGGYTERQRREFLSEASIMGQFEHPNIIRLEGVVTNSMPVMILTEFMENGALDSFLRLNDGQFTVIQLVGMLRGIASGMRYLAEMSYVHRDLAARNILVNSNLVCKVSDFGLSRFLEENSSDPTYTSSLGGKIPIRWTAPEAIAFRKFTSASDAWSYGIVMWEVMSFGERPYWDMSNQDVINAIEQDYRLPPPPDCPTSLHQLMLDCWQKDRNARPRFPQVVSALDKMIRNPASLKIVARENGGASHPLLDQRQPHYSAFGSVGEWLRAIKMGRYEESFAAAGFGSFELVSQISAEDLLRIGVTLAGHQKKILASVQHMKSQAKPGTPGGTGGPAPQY

[9] = target: Serine/threonine-protein kinase PAK 3 (Homo sapiens) (UniProt O75914); assay: PAK3 Invitrogen selectivity data (BI); details: Compound concentration 3.0 uM
[10] = target: Sigma non-opioid intracellular receptor 1 (Homo sapiens) (UniProt Q99720); assay: SIGMA/NS Cerep selectivity data (BI); details: filed as agonist, Compound concentration 20.0 uM
[11] = target: 5-hydroxytryptamine receptor 1D (Homo sapiens) (UniProt P28221); assay: 5HT1D/H AG Cerep selectivity data (BI); details: filed as agonist, Compound concentration 20.0 uM
[12] = target: Glutamate NMDA receptor (Rattus norvegicus) (UniProt P35439+Q00959+Q00960+Q00961+Q62645+Q8VHN2+Q9R1M7); assay: NMDAAGSI/RA Eurofins-Panlabs selectivity data (BI); type: protein-complex assay; details: filed as agonist, Compound concentration 10.0 uM
[13] = target: Neprilysin (Homo sapiens) (UniProt P08473); assay: N_ENDOPEP Cerep selectivity data (BI); details: Compound concentration 20.0 uM
[14] = target: Mitogen-activated protein kinase 1 (Homo sapiens) (UniProt P28482); assay: ERK2(P42MAPK)_CE Cerep selectivity data (BI); details: Compound concentration 20.0 uM
[15] = target: Sodium channel regulatory subunit beta-1 (Rattus norvegicus) (UniProt Q00954); assay: NA+/SITE2/R Cerep selectivity data (BI); details: Compound concentration 20.0 uM

Measured: residual activity

Chain of Catechol O-methyltransferase (Sus scrofa) (Q99028 whole entry): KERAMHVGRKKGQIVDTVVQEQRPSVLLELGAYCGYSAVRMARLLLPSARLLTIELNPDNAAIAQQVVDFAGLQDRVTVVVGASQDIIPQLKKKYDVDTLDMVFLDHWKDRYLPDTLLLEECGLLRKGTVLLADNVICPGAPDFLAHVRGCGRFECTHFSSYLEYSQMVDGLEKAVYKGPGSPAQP
Chain of SRSF protein kinase 1 (Homo sapiens) (Q96SB4 whole entry): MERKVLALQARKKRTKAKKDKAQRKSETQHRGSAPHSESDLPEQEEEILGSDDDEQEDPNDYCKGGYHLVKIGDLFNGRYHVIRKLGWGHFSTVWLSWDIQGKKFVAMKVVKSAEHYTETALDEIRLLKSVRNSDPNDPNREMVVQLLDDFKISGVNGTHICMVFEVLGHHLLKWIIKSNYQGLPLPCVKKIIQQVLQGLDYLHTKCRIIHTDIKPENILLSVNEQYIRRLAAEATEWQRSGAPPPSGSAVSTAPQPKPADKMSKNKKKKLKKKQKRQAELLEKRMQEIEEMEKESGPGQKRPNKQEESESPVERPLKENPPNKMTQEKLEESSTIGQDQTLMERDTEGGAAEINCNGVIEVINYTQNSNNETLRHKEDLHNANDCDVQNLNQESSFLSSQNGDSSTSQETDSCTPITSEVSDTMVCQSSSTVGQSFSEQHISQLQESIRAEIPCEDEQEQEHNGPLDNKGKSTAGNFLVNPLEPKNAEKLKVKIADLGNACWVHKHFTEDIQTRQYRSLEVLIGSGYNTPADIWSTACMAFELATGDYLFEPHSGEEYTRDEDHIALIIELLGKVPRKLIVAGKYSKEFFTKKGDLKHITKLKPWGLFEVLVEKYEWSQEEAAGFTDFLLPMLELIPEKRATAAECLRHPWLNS
Chain of Estrogen receptor (Homo sapiens) (P03372 whole entry): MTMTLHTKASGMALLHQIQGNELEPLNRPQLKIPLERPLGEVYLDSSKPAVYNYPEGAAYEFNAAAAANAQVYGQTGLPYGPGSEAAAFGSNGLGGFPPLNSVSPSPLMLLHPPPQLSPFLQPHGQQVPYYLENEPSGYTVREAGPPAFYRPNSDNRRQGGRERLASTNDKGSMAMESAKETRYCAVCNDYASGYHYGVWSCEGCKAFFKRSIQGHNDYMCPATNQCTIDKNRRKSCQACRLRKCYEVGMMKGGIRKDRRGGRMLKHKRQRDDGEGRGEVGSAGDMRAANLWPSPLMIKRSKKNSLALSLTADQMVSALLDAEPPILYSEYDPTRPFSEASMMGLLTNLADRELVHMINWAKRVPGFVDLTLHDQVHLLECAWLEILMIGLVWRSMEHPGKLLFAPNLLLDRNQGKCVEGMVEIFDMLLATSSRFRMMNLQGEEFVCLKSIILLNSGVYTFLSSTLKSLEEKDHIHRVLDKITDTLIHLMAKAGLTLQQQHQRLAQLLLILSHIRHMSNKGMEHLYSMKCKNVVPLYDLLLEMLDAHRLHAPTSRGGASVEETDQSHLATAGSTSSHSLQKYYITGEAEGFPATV
Chain of Mitogen-activated protein kinase 1 (Homo sapiens) (P28482 whole entry): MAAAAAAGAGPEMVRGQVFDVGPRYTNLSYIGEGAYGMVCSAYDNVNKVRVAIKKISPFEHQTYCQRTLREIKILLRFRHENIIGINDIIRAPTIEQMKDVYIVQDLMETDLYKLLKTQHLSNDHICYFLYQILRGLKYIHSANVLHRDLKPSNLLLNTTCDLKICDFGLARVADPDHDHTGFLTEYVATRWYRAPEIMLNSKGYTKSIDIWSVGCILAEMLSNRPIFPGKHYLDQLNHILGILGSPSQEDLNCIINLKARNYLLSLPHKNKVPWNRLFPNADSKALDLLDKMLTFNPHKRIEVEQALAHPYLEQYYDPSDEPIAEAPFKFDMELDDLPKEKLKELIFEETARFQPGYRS
Chain of 5-hydroxytryptamine receptor 1D (Homo sapiens) (P28221 whole entry): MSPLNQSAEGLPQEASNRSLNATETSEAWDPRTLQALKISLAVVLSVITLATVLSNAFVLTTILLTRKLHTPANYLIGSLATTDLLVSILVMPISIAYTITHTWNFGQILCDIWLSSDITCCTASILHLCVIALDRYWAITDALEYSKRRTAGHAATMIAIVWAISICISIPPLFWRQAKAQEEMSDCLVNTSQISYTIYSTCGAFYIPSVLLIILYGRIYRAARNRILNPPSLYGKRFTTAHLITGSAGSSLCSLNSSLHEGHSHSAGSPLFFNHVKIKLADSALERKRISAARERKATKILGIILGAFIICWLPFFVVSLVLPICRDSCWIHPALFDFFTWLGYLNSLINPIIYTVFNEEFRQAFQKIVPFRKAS
Chain of Serine/threonine-protein kinase pim-2 (Homo sapiens) (Q9P1W9 whole entry, looked up): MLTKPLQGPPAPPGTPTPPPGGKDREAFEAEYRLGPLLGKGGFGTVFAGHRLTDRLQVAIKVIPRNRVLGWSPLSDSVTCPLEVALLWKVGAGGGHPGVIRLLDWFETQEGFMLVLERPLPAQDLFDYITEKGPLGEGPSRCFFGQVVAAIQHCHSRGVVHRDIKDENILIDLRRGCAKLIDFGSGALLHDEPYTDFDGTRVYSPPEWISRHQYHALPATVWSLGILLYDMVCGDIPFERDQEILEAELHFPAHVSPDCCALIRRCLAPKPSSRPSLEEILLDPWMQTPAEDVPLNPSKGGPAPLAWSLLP
Chain of Sigma non-opioid intracellular receptor 1 (Homo sapiens) (Q99720 whole entry): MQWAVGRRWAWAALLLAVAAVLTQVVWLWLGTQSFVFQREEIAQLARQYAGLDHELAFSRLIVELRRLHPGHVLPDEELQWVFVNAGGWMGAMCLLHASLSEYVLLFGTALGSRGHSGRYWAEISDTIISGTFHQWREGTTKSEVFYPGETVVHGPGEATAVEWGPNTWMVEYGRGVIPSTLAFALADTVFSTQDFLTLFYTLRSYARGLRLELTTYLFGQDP
Chain of Sodium channel regulatory subunit beta-1 (Rattus norvegicus) (Q00954 whole entry): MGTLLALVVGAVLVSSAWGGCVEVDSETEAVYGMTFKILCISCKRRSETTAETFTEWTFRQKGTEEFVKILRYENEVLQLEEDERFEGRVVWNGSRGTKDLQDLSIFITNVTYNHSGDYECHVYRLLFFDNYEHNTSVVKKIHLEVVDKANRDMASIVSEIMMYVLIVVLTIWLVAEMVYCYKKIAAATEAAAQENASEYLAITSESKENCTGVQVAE
Chain of Serine/threonine-protein kinase PAK 3 (Homo sapiens) (O75914 whole entry, looked up): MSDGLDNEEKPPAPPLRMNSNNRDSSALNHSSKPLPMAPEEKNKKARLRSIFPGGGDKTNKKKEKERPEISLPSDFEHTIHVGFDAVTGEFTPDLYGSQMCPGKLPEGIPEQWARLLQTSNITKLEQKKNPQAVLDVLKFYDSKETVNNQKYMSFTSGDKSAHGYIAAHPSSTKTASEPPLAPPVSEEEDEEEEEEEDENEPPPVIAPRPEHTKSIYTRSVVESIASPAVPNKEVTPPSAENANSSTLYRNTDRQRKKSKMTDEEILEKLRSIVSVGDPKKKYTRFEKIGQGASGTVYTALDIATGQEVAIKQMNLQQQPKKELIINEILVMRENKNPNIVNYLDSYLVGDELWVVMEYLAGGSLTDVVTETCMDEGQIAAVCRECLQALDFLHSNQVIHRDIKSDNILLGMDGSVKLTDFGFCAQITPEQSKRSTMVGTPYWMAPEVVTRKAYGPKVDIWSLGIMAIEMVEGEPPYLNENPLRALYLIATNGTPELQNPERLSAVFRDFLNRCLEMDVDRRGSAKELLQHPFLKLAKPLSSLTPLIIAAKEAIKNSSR
Chain of Neprilysin (Homo sapiens) (P08473 whole entry): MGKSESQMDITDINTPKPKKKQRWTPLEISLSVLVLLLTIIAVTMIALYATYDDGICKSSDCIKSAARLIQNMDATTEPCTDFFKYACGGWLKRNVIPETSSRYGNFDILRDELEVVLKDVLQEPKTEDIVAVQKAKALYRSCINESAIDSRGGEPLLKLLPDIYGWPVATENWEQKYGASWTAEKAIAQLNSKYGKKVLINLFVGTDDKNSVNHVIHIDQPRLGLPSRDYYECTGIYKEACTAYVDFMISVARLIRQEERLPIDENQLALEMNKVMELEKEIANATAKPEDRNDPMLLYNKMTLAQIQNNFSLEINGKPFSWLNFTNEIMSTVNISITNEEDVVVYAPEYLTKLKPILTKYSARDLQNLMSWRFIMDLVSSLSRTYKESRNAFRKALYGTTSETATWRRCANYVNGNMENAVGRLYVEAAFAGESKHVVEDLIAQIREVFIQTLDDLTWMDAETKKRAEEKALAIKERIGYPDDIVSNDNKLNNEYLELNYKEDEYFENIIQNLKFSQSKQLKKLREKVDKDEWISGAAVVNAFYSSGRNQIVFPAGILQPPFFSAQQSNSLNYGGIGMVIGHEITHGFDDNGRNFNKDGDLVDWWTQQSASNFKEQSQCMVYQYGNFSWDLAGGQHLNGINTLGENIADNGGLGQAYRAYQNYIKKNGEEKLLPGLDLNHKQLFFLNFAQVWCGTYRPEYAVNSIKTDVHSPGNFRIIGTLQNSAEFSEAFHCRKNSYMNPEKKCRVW
Chain of Mitogen-activated protein kinase 14 (Homo sapiens) (Q16539 whole entry): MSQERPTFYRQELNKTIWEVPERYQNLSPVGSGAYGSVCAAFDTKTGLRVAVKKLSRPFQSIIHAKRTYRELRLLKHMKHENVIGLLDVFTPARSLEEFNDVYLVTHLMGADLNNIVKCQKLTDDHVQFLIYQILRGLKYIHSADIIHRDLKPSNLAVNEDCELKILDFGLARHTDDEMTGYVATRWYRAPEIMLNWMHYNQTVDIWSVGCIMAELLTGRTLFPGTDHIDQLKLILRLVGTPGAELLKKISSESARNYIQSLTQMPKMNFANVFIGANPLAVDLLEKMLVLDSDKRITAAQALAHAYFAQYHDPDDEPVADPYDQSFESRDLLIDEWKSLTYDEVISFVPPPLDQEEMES

CN(C)C(=O)Cn1cc(-c2nc([C@@](C)(c3ccc(-c4cnc(N)nc4)cc3)C3CC3)no2)cn1 [BI 665915]
inactive: [1] 100% | [2] 99% | [3] 101% | [4] 97.5% | [5] 96.5% | [6] 89.5% | [7] 85% | [8] 101% | [9] 94.5% | [10] 99% | [11] 102% | [12] 102% | [13] 108% | [14] 114% | [15] 107%

Source: ChEMBL document CHEMBL4507276 (2021)
